Measurements reported in patent publication US5081121A, “4(1H)-quinolone derivatives” (priority 1988, dated 1992).

Experiments:
left atrial muscle = assay: Test Method 1: enhancement of contracting force of left atrial muscle extirpated from a guinea pig (electrically stimulated at 1 Hz); type: cell-based; conditions: Cavia porcellus, Krebs-Henseleit solution 32° C.; for EC20: read-out: EC20 (molar concentration for enhancing the left atrial muscle contracting force to the level of 20%); for EC50: read-out: EC50 (molar concentration for enhancing the left atrial muscle contracting force to the level of 50%); for EC100: read-out: EC100 (molar concentration for enhancing the left atrial muscle contracting force to the level of 100%)
Protocol: (§1) The drug according to the present invention was evaluated with reference to the physiological activities by means of a method using an atrial muscle extirpated from a guinea pig.
(§2) Male guinea pigs having a body weight of 300-500 g were made swooned by striking his head and were bleeded to death. The heart was extirpated and the right and left atrial muscles were cut off. The tops of each atrial muscle were fixed with cerrefines. The muscle was suspended into an organ-bath in which a Krebs-Henseleit solution (at 32° C.) was filled, and a 95% O2 -5% CO2 gas was flown through the bath. The left atrial muscle was stimulated electrically at a frequency of 1 Hz to stabilize the contracting force of the left atrial muscle. Then, the compounds according to the present invention represented by the general formulae were added to the organ-bath. As for the right atrial muscle, after the pulsation was stabilized, the compounds according to the present invention were added in the organ-bath in the same manner as described above.
(§3) The compounds according to the present invention represented by the aforementioned general formulae enhanced the left atrial muscle contracting force dependent on their concentrations. The drug concentrations for enhancing the left atrial muscle contracting force to the levels of 20%, 50% and 100%, respectively are listed in Table 2. EC20, EC50 and EC100 indicate the molar concentration for enhancing the left atrial muscle contracting force to the levels of 20%, 50% and 100%, respectively. The enhancing rates of the pulsation of the right atrial muscle are also listed within parentheses. The minus values in parentheses indicate that the pulsation of the right atrial muscle is decreased.
(§4) As a control drug, theophylline ([…].

right atrial muscle = assay: Test Method 1: enhancing rate of the pulsation of the right atrial muscle extirpated from a guinea pig; type: cell-based; conditions: minus values: pulsation is decreased
Protocol: as §1, §2, §3, §4

Compound	EC20 (left atrial muscle) [µM]	EC50 (left atrial muscle) [µM]	EC100 (left atrial muscle) [µM]	enhancing rate of the pulsation of the right atrial muscle (in parentheses under EC20) (right atrial muscle) [%]	enhancing rate of the pulsation of the right atrial muscle (in parentheses under EC100) (right atrial muscle) [%]	enhancing rate of the pulsation of the right atrial muscle (in parentheses under EC50) (right atrial muscle) [%]
CCOC(=O)c1c[nH]c2c(OC)ccc(-c3ccccc3)c2c1=O [Compound 37, 3-ethoxycarbonyl-8-methoxy-5-phenyl-4(1H)-quinolone]	1.58	7.5	37.2	-1.3	-5.0	-2.2
CCOC(=O)c1c[nH]c2c(OC)cccc2c1=O [Compound 35, 3-ethoxycarbonyl-8-methoxy-4(1H)-quinolone]	26	80	260	-1.2	-3.7	-2.0
COC(=O)c1cn(C)c2cc(OC)c(OC)cc2c1=O [Compound 32, 6,7-dimethoxy-3-methoxycarbonyl-1-methyl-4(1H)-quinolone]	40.7	85.1	282	0.1	0.4	0.3
CCOC(=O)c1cn(CC)c2c(OCC)cc(OC)cc2c1=O [Compound 78, 8-ethoxy-3-ethoxycarbonyl-1-ethyl-6-methoxy-4(1H)-quinolone]	8.41	75		-6.2		-25.0
CCOc1cc2c(cc1OC)c(=O)ccn2CC [Compound 58, 7-ethoxy-1-ethyl-6-methoxy-4(1H)-quinolone]	8.13	47.3		3.0		13.5
COc1ccc2c(=O)cc[nH]c2c1O [Compound 3, 8-hydroxy-7-methoxy-4(1H)-quinolone]	708	977		0.8		2.0
COc1cccc2c(=O)c(C(=O)N3CCN(Cc4ccc5c(c4)OCO5)CC3)cn(C)c12 [Compound 107, 8-methoxy-1-methyl-3-{1-[4-(3,4-methylenedioxybenzyl)-piperazinyl]carbonyl}-4(1H)-quinolone]	16.2	100		-6.6		-19.5
COc1ccc(OC)c(/C=C/c2ccc3[nH]ccc(=O)c3c2)c1 [Compound 46, 6-[2-trans-(2,5-dimethoxyphenyl)vinyl]-4(1H)-quinolone]	45.7	162		-1.0		3.5
CCOc1cc2c(=O)c(C(=O)O)cn(CC)c2cc1OC [Compound 86, 3-carboxyl-6-ethoxy-1-ethyl-7-methoxy-4(1H)-quinolone]	30	125		1.5		8.5
COc1cc2c(=O)ccn(C)c2cc1OC [Compound 13, 6,7-dimethoxy-1-methyl-4(1H)-quinolone]	12.5	88.1	447	0.1	4.0	1.2
CCOc1cc2c(cc1OC)c(=O)cc(-c1ccco1)n2CC [Compound 101, 7-ethoxy-1-ethyl-2-(2-furyl)-6-methoxy-4(1H)-quinolone]	1.68	19.5	89.1	-1.0	0.0	-2.8
CCCCOc1cc2c(cc1OC)c(=O)cc(-c1ccco1)n2CC [Compound 118, 7-n-butoxy-1-ethyl-2-(2-furyl)-6-methoxy-4(1H)-quinolone]	10	49		-5.0		-21.2
C=CCn1c(C2CC2)cc(=O)c2cc(OC)c(OCC)cc21 [Compound 103, 1-allyl-2-cyclopropyl-7-ethoxy-6-methoxy-4(1H)-quinolone]	3	34.3	162	-2.0	1.2	0.5
COc1c(O)ccc2[nH]ccc(=O)c12 [Compound 2, 6-hydroxy-5-methoxy-4(1H)-quinolone]	490	871		0.6		2.2
CCOC(=O)c1cn(CC)c2c(OC)cc(S(C)(=O)=O)cc2c1=O [Compound 40, 3-ethoxycarbonyl-1-ethyl-8-methoxy-6-methylsulfonyl-4(1H)-quinolone]	4.57	36.3		-4.5		-16.0
CCOc1cc2c(=O)ccn(CC)c2cc1OC [Compound 49, 6-ethoxy-1-ethyl-7-methoxy-4(1H)-quinolone]	16.8	62.4	229	-2.5	10.2	-1.0
COc1ccc(Cn2ccc(=O)c3cc(OC)c(OC)cc32)cc1 [Compound 17, 6,7-dimethoxy-1-(4-methoxybenzyl)-4(1H)-quinolone]	4.47	30		-2.1		-4.0
CCOc1cc2c(cc1OC)c(=O)cc(-c1cccs1)n2CC [Compound 102, 7-ethoxy-1-ethyl-6-methoxy-2-(2-thienyl)-4(1H)-quinolone]	2.51	40.3		-0.2		-5.2
COc1ccc2[nH]ccc(=O)c2c1OCc1ccccc1 [Compound 4, 5-benzyloxy-6-methoxy-4(1H)-quinolone]	1000			0.7		
CCOC(=O)c1cn(CC)c2c(OC)cc([S+](C)[O-])cc2c1=O (stereo not drawn) [Compound 39, 3-ethoxycarbonyl-1-ethyl-8-methoxy-6-methylsulfinyl-4(1H)-quinolone]	13.5	67.6		-7.7		-12.1
CCn1ccc(=O)c2cc(/C=C/c3cc(OC)ccc3OC)ccc21 [Compound 111, 6-[2-trans-(2,5-dimethoxyphenyl)vinyl]-1-ethyl-4(1H)-quinolone]	18.2	97.7		-9.8		-27.0
CCn1c(-c2cccs2)cc(=O)c2ccccc21 [Compound 97, 1-ethyl-2-(2-thienyl)-4(1H)-quinolone]	4.52	50.7		-1.0		-3.0
CCOC(=O)c1cn(CC)c2c(C)c(C)ccc2c1=O [Compound 81, 7,8-dimethyl-3-ethoxycarbonyl-1-ethyl-4(1H)-quinolone]	35.5	57.5		-10.5		-15.0
CCOC(=O)c1cn(CC)c2cc(OCC)c(OC)cc2c1=O [Compound 34, 7-ethoxy-3-ethoxycarbonyl-1-ethyl-6-methoxy-4(1H)-quinolone]	6.46	100		-3.2		-8.5
COc1ccc2[nH]ccc(=O)c2c1O [Compound 1, 5-hydroxy-6-methoxy-4(1H)-quinolone]	199	398	708	1.2	6.8	3.6
